For 87 molecules, melting point results are on record in a melting point compilation (Tetko et al.; mined from patent text by program, amines drawn as free bases though some values may be those of a salt).

One may read the melting point as the temperature of the solid-liquid transition.

Structures are written as SMILES.

In turn, `O=C(O)C1(N(Cc2noc(=O)[nH]2)S(=O)(=O)c2ccc(-c3ccc(Cl)cc3)cc2)CC1c1ccccc1` (configuration not stated) had a melting point of 168 to 172 °C.

Consider `OC(CCc1ccccc1)c1cc2ccncc2[nH]1` (configuration not stated), for which the melting point was in the range of 162 to 166 °C.

Turning to `CN(C=C(C#N)C#N)c1ccc(Cl)cn1`, the melting point was in the range of 136 to 137 °C.

The molecule `CN1CCN(CCCNc2cc(Oc3ccc4c(C(=O)Nc5cc(C(C)(C)C)nn5-c5ccc(F)cc5)cccc4c3)ncn2)CC1` returned a melting point of 131 to 133 °C.

Turning to `Oc1cccc([C@H]2CCCC[C@H]2NCCCc2ccccc2)c1` (racemic), the melting point lay in the range of 112 to 113 °C.

In turn, `CC(C)c1ccc(N(Cc2ccc(N(C)C)cc2)C(=O)C2CCCc3cc(OCCN(C)C)ccc32)cc1` (configuration not stated) came in with a melting point of 133 °C.

On to `OCC=Cc1ccc(-c2cnc(CSCCOc3ccccc3)o2)cc1`, for which the melting point is 73 to 74 °C.

The molecule `CCN1CCC(c2ccccc2)=C(C(=O)OCC2CCCCC2)C1` gave a melting point of 94 to 97 °C.

For `Cc1cccc(C)c1N(C)C(=O)Cl`, the melting point lay in the range of 79 to 80 °C.

The molecule `O=C(NCC12CC3CC(CC(C3)C1)C2)c1cc(-c2cccnc2N2CCCC(C(=O)O)C2)ccc1Cl` (configuration not stated) displayed a melting point of 125 to 130 °C.

Molecule `CCc1noc(-c2cn(-c3ncc(OC(C)C)cn3)cn2)n1` displayed a melting point of 156 to 157 °C.

As for `CCOc1cccc(C(c2ncccc2OC)n2nc(C(=O)O)c3c2-c2ccc(OCc4cncnc4)cc2CC3)c1` (configuration not stated), the melting point lay within 222 to 225 °C.

The molecule `CCc1[nH]n(C2CCCC2)c2nc(-c3ccnc(C)c3)nc(=O)c1-2` came in with a melting point of 258 to 259 °C.

On to `COC(=O)[C@H]1C[C@H]2C(=O)NCCN2C1`, for which the melting point fell in the range of 70 to 74 °C.

As for `CCCc1nc2c(N)nc3cc(OCCCN)ccc3c2n1CC(C)C`, the melting point lay in the range of 173 to 174 °C.

Consider `O=C=Nc1ccc(Cl)cc1[N+](=O)[O-]`, for which the melting point lay in the range of 54 to 56 °C.

Turning to `CCN(CC)Cc1cc(NC(=O)Nc2ccc(Oc3cc(N)ncn3)cc2)cc(C(F)(F)F)c1`, the melting point was in the range of 63 to 65 °C.

In turn, `Cn1c(=O)c(-c2c(Cl)cccc2Cl)cc2cnc(NC3CCCCC3)nc21` registered a melting point of 242 to 244 °C.

For the molecule `COc1cccc2c(N(C)c3ccccc3)nc(N(C)c3ccccc3)nc12`, the melting point fell in the range of 169 to 170 °C.

`COCc1cnc2c([N+](=O)[O-])cccc2c1Cl` showed a melting point of 91 to 94 °C.

Regarding `CCOC(=O)c1cc(C(=O)OCC)n(C(C)c2ccccn2)n1` (configuration not stated), the melting point lay within 63 to 65 °C.

As to `Cc1ccsc1NC(=O)NCC(=O)N(CC(=O)N(C)c1ccccc1)c1ccccc1`, the melting point amounted to 172 °C.

For the molecule `CCCNC(=O)c1cnc2ccccc2c1O`, the melting point is 210 °C.

`Cc1ccccc1NC(=O)CN1CC2CCC(C1)N2S(=O)(=O)c1cccc2nonc12` gave a melting point of 167 to 168 °C.

The molecule `CCc1nn(C2CCCC2)c2cc(C(=O)O)ccc12` displayed a melting point of 153 to 155 °C.

In turn, `NC(=O)C(CCC(=O)O)N1C(=O)c2cccc(NCc3ccco3)c2C1=O` (configuration not stated) had a melting point of 120 to 122 °C.

As to `N#Cc1cnc2sc(-c3ccccc3)cc2c1Oc1ccc2[nH]ccc2c1`, the melting point fell in the range of 219 to 221 °C.

Take `CC1(C)CC(c2ccccc2)c2ccc(OCC3CO3)cc2O1` (configuration not stated): the melting point lay in the range of 82 to 85 °C.

Regarding `CCOC(=O)NN=Cc1ccnc2ccccc12`, the melting point was found to be 161 °C.

`CCOC(=O)C1N=C(c2ccccc2)c2cc(Cl)ccc2N(C)C1=O` (configuration not stated) showed a melting point of 180 °C.

Molecule `O=C(CCc1cccnc1)c1c(O)c2cccnc2n(-c2ccccc2)c1=O` gave a melting point of 219 to 220 °C.

Turning to `CCON=C(CC)C1=C(O)CC(c2ccc(Oc3ccc(S(C)(=O)=O)cc3)cc2)CC1=O` (configuration not stated), the melting point lay in the range of 155 to 157 °C.

As for `COC1=C(CCO)C(=O)C(OC)=C(CCCCCC2=C(OC)C(=O)C(CCO)=C(OC)C2=O)C1=O`, the melting point was in the range of 97 to 99 °C.

Molecule `COc1nnc2n1C=Cc1ccccc1C2c1ccccc1` (configuration not stated) registered a melting point of 183 to 184 °C.

Molecule `CCOC(=O)CCNC(=O)CNC(=O)c1csc(NC(=O)NCc2ccccc2)n1` came in with a melting point of 187 °C.

Consider `CC(C)(C)NCC(O)COc1ccc(-c2nc(C(N)=O)c[nH]2)cc1` (configuration not stated), for which the melting point is 149 to 154 °C.

Turning to `CCc1ccc(C(=O)O)c2ccccc12`, the melting point was 125 to 127 °C.

The molecule `CC(CCCC(C)C1CCC2C3CC=C4C(C)(C)C(O)CCC4(C)C3CCC12C)CO[Si](C)(C)C(C)(C)C` (configuration not stated) had a melting point of 88.5 °C.

In turn, `COc1cc2c(cc1F)C(=O)C(=O)N2` displayed a melting point of 260 °C.

`N#Cc1ccc(-c2cnco2)cc1`: the melting point amounted to 140 °C.

For `OCCCc1cnoc1-c1ccc(Cl)cc1`, the melting point is 58 to 59 °C.

`CCCCCC[C@H]1C[C@@H](C)OC1=O` (relative stereo) showed a melting point of 28.5 °C.

Take `O=c1c(O)c(-c2ccccc2-c2ccc(CNc3nc(C(F)(F)F)nc4c3CCCC4)cc2)c1=O`: the melting point was found to be 193 °C.

As to `Cc1ccn(-c2ccc(C(=O)N3Cc4cccn4Cc4ccccc43)c(O)c2)n1`, the melting point was 134 to 136 °C.

On to `O=C1OC(=O)[C@H](Cc2ccccc2)C[C@H]1Cc1ccccc1`, for which the melting point is 172 to 174 °C.

Molecule `CCc1c(C)[nH]c(=O)n(-c2cc(C(=O)OC(C)C)c(Cl)cc2F)c1=O` had a melting point of 176 to 178 °C.

`CC1(C)N=C(c2ccccc2F)c2cc(N)ccc2NC1=O`: the melting point was 203 °C.

For the molecule `FC(F)(F)/C(=C(/c1ccccc1)c1ccc(OCCBr)cc1)c1ccccc1`, the melting point is 135 to 138 °C.

`CC(C)(C)C(=O)Nc1ccc(Cl)cc1F` had a melting point of 70.5 to 71 °C.

Take `COc1cc(Cn2cc3c(CC(C)C)nn(C)c(=O)c3c2)cc(OC)c1OC`: the melting point lay in the range of 154 to 155 °C.

For the molecule `O=C1N(Cc2ccc(Cl)s2)c2c(C(F)(F)F)cccc2C12COc1cc3c(cc12)OCO3` (configuration not stated), the melting point was in the range of 165 to 166 °C.

In turn, `COC(=O)C(Oc1ccc(C23CC4CC(CC(C4)C2)C3)cc1)c1ccc(Oc2ccc(Cl)cc2)cc1` (configuration not stated) registered a melting point of 148 to 150 °C.

`CC1(C)CCC(N2c3ccccc3Oc3ccccc32)=N1` showed a melting point of 148 to 150 °C.

Molecule `CC(=Cc1cc(O)c(O)c([N+](=O)[O-])c1)C(C)O` (configuration not stated) had a melting point of 102 to 104 °C.

In the case of `C=CCOc1ccc(-c2cc(N)n[nH]2)cc1`, the melting point is 158 to 159 °C.

As for `O=C(Oc1ccc([N+](=O)[O-])cc1)c1ccnc(F)c1`, the melting point lay in the range of 148 to 150 °C.

Turning to `N#CS/C=C\C(=O)OCc1ccccc1`, the melting point is 48.5 to 50.5 °C.

Take `Nc1ccc(CCCO)cc1`: the melting point is 54 to 56 °C.

`COc1ccc(S(=O)(=O)C2(C(=O)NO)CCN(CCOc3ccccc3)CC2)cc1` registered a melting point of 168 to 172 °C.

As to `COC(=O)c1cccc(-c2ccccc2OC)c1`, the melting point lay within 92 to 93 °C.

As to `CCCCCCCCCCCCCCCCCCC1(CO)OC(n2cccnc2=O)C(O)C1O` (configuration not stated), the melting point was found to be 159 °C.

Molecule `CC(C)C(OC(=O)C(C)(C)C)n1nnc(-c2ccccc2-c2ccc(Oc3c(C4CC4)nc4ccccc4c3C(=O)O)cc2)n1` (configuration not stated) came in with a melting point of 165 to 168 °C.

As for `COc1cc(-n2cc(F)c(F)c2)ccc1-n1cc(OC)c(=O)c(-c2ccnn2-c2ccccc2)n1`, the melting point is 206 to 207 °C.

As to `CCOC(=O)CC(=O)Nc1ccc(Cl)cc1`, the melting point worked out at 82 °C.

With `O=C1Nc2cccnc2Nc2ccsc21`, the melting point lay in the range of 273 to 279 °C.

As to `Cc1nc(N2C[C@@H](O)CC2=O)sc1C(=O)NCc1ccccc1`, the melting point lay in the range of 203 to 204 °C.

The molecule `COc1c(O)c(C=O)cc2c1OCC2` yielded a melting point of 71 to 72 °C.

`CSCc1cnc2ccccc2c1O` gave a melting point of 196 to 197 °C.

`COc1cc2ncnc(N3CCN(C(=O)NCc4ccc(CO)cc4)CC3)c2cc1OC` registered a melting point of 228 to 229 °C.

`Cc1nc(NC(=O)c2cnn3c(C(F)(F)F)cc(-c4ccc(C(F)(F)F)cc4)nc23)sc1S(=O)(=O)NCCO` displayed a melting point of 166 °C.

The molecule `Cc1c(Cl)ccc(S(=O)(=O)N(CCc2ccccc2)CC(=O)NCC(=O)O)c1Cl` displayed a melting point of 110 °C.

The molecule `CCOC(=O)c1c(CS(=O)(=O)c2nc3ccccc3[nH]2)nc2cc(OC)c(OC)cc2c1-c1ccc(OC)c(OC)c1` came in with a melting point of 181 to 182 °C.

With `Sc1nc2ccccc2c2nc(-c3ccoc3)nn12`, the melting point was in the range of 290 to 292 °C.

`COCCN(C)C(=O)COc1cc(-c2ccc(C)cc2)nc2cccc(C(F)(F)F)c12`: the melting point is 116 °C.

In the case of `CCOC(=O)c1ccc(C#Cc2ccc3c(c2)C(=O)CC(C)(C)S3)cc1`, the melting point lay within 102 to 104 °C.

For the molecule `O=C1OC(O)(C(F)(F)F)c2cccc(O)c21` (configuration not stated), the melting point lay within 128 to 129 °C.

As to `Cc1cccc2cc(C(=O)N(C)C)c(C=CNc3ccccc3)nc12`, the melting point was 143 to 146 °C.

The molecule `CC(C)[C@H]1NC(=O)[C@H]1N` (relative stereo) came in with a melting point of 91 to 93 °C.

Molecule `Cn1cc2c(nc(NC(=O)Nc3ccc(CC(=O)NCCCOCCOCCOCCCNC(=O)OC(C)(C)C)cc3)n3nc(-c4ccco4)nc23)n1` displayed a melting point of 151 to 158 °C.

Take `Cc1c(C=NO)c2cc(F)ccc2n1-c1ccc(OCc2ccccc2)cc1`: the melting point is 183 to 185 °C.

`COC(=O)c1ccc2cc(OC(=S)N(C)C)ccc2c1` returned a melting point of 144 to 147 °C.

In the case of `CCCCN(C)C(=O)c1cccc(-c2nc(=O)c3ccccc3s2)n1`, the melting point fell in the range of 80 to 81.6 °C.

For `O=C(O)c1cccnc1-c1ccc2[nH]nc(Nc3nccs3)c2c1`, the melting point fell in the range of 267 to 268 °C.

`COc1ccccc1Cc1n[nH]c2c1c(=O)n(-c1cccc(C(F)(F)F)c1)c1ncccc21` gave a melting point of 229 to 231 °C.

Molecule `CCOP(=O)(Cc1ccccc1CN1C(=O)c2ccccc2C1=O)OCC` yielded a melting point of 91 to 92 °C.

`O=C1C(Cl)=C(c2ccccc2)C(=O)N1c1ccccc1Cl` gave a melting point of 132 to 133 °C.

In turn, `CS(=O)(=O)Nc1ccc(C(=O)CN(Cc2ccccc2)Cc2ccccc2)cc1` came in with a melting point of 131 to 134 °C.
